For 27 compounds, IC50 and IC50 cytotoxicity (DAPI nuclear signal decrease) results are on record in PubChem BioAssay AID651630 (Sanford-Burnham Center for Chemical Genomics, 2012).

What is called IC50 is the midpoint of a concentration-inhibition curve.

Activity calls are given as the source filed them.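 Rule for the calls: active = lipid-stain IC50 at or below a set limit, with nuclear-stain toxicity IC50 at least five times higher; inactive = the rest.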

The test system of one experiment is TAG. The experiment can be described thus: triacylglycerol accumulation inhibitor potency, dose response, cell-based, panel, Nile Red and DAPI fluorescence, H9c2 (AID 651630).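 Note: cells exposed to compound overnight before fixation and staining.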 To be noted: H9c2 cells, Nile Red TAG fluorescence, oleic acid.
The next experiment relates to DAPI. The experiment is described as above. The conditions noted are these: H9c2 cells, DAPI nuclear fluorescence (cytotoxicity counter-readout), oleic acid.

`Cn1cc(/C=N/n2cnc3scc(-c4ccc(Cl)cc4)c3c2=O)c2ccccc21`: the results for the IC50 in the experiment with TAG (run 1) and in the experiment on TAG (run 2) were 5.8 µM and less than 0.78 µM, respectively. Also, the IC50 cytotoxicity (DAPI nuclear signal decrease) with DAPI (run 1) and with DAPI (run 2) was more than 25 µM in each case.

Consider `CCOc1ccc(OCC)c(NC(=O)CN(c2ccc(C)cc2)S(=O)(=O)c2c(C)noc2C)c1`, for which the values for the IC50 in the experiment on TAG (mean of runs), with TAG (run 1) and in the experiment on TAG (run 2) were 19.6 µM (inactive), 17.1 µM and 22 µM, respectively. Also, the IC50 cytotoxicity (DAPI nuclear signal decrease) was > 25 µM (inactive) in the experiment on DAPI (mean of runs), more than 25 µM with DAPI (run 1) and more than 25 µM with DAPI (run 2).

With `COc1cccc(Cn2c3ccc(NC(=O)CCc4ccc(F)cc4)cc3c(=O)n2C)c1`, the IC50 in the experiment with TAG (run 1) is 20.9 µM; in the experiment on TAG (run 2), more than 25 µM. Besides, the IC50 cytotoxicity (DAPI nuclear signal decrease) in the experiment on DAPI (mean of runs) is > 25 µM (inactive); in the experiment with DAPI (run 1), more than 25 µM; with DAPI (run 2), more than 25 µM.

With `CC(C)(C)c1cc(NCc2ccccn2)n2ncc(-c3ccc(Cl)cc3)c2n1`, the figures for the IC50 in the experiment on TAG (mean of runs), in the experiment with TAG (run 1) and in the experiment with TAG (run 2) were > 25 µM (inactive), more than 25 µM and more than 25 µM, respectively. Moreover, the IC50 cytotoxicity (DAPI nuclear signal decrease) was > 25 µM (inactive) with DAPI (mean of runs), more than 25 µM with DAPI (run 1) and more than 25 µM in the experiment on DAPI (run 2).

Regarding `CCO[C@@H]1OC(C(=O)N2CCN(Cc3ccccc3)CC2)=C[C@H](c2ccc(C(F)(F)F)cc2)[C@H]1CCCO`, the values for the IC50 with TAG (mean of runs), in the experiment with TAG (run 1) and with TAG (run 2) were 11.4 µM, 11.2 µM and 11.6 µM, respectively. Also, the IC50 cytotoxicity (DAPI nuclear signal decrease) is > 25 µM (inactive) with DAPI (mean of runs), more than 25 µM in the experiment with DAPI (run 1) and more than 25 µM in the experiment on DAPI (run 2).

For the compound `N#C/C(=C\Nc1ccc2cn[nH]c2c1)c1nc(-c2ccc(Cl)cc2)cs1`, the IC50 was 11.1 µM in the experiment on TAG (mean of runs), 8.39 µM in the experiment on TAG (run 1) and 13.8 µM in the experiment with TAG (run 2). Besides, the IC50 cytotoxicity (DAPI nuclear signal decrease) in the experiment on DAPI (mean of runs) is 17.8 µM (inactive); with DAPI (run 1), 23.7 µM; in the experiment with DAPI (run 2), 12 µM.

`COc1ccc(NC(=O)Cn2c(=O)n(-c3ccc(CC(=O)NCc4ccco4)cc3)c(=O)c3ccccc32)cc1`: the IC50 was 24.7 µM in the experiment on TAG (run 1) and more than 25 µM in the experiment on TAG (run 2). Moreover, the values for the IC50 cytotoxicity (DAPI nuclear signal decrease) in the experiment with DAPI (mean of runs), in the experiment with DAPI (run 1) and in the experiment with DAPI (run 2) were > 25 µM (inactive), more than 25 µM and more than 25 µM, respectively.

Take `COc1ccc(NC(=O)C2(C)Cc3c(-c4cccc(C(N)=O)c4)ccnc3O2)cc1` (centres undefined): the IC50 in the experiment with TAG (run 1) was more than 25 µM; in the experiment on TAG (run 2), 12.1 µM. Further, the IC50 cytotoxicity (DAPI nuclear signal decrease) was > 25 µM (inactive) with DAPI (mean of runs), more than 25 µM in the experiment with DAPI (run 1) and more than 25 µM with DAPI (run 2).

As to `CCCC(=O)Nc1nc2ccc(NC(=O)c3c(F)c(F)c(OC)c(F)c3F)cc2s1`, the IC50 in the experiment on TAG (mean of runs) is 6.21 µM; in the experiment on TAG (run 1), 6.68 µM; with TAG (run 2), 5.73 µM. Further, the IC50 cytotoxicity (DAPI nuclear signal decrease) in the experiment with DAPI (mean of runs) is > 25 µM (inactive); in the experiment on DAPI (run 1) it was more than 25 µM; in the experiment on DAPI (run 2), more than 25 µM.

As for `Cc1ccc(C(=O)NCCN2C3=NC[C@H](C(C)C)N3C[C@H]2Cc2ccc(O)cc2)cc1Br`, the IC50 is 16.8 µM (inactive) in the experiment on TAG (mean of runs), 16.9 µM in the experiment on TAG (run 1) and 16.7 µM in the experiment on TAG (run 2). Besides, the IC50 cytotoxicity (DAPI nuclear signal decrease) in the experiment on DAPI (mean of runs) is > 25 µM (inactive); in the experiment with DAPI (run 1) it was more than 25 µM; in the experiment with DAPI (run 2), more than 25 µM.

In the case of `O=C(Nc1ccc(-c2csc(Nc3cccc(C(F)(F)F)c3)n2)cc1)c1ccccc1`, the figures for the IC50 in the experiment with TAG (run 1) and with TAG (run 2) were 22.3 µM and more than 25 µM, respectively. The IC50 cytotoxicity (DAPI nuclear signal decrease) with DAPI (mean of runs) was > 25 µM (inactive); in the experiment on DAPI (run 1), more than 25 µM; in the experiment with DAPI (run 2), more than 25 µM.

With `CNC(=O)c1ccc(-c2sc3nc(N4CCOCC4)c4c(c3c2N)CC(C)(C)OC4)o1`, the IC50 was 9.7 µM in the experiment on TAG (mean of runs), 13.1 µM with TAG (run 1) and 6.33 µM in the experiment with TAG (run 2). The figures for the IC50 cytotoxicity (DAPI nuclear signal decrease) in the experiment on DAPI (mean of runs), in the experiment on DAPI (run 1) and in the experiment with DAPI (run 2) were > 25 µM (inactive), more than 25 µM and more than 25 µM, respectively.

On to `COc1ccc(OC)c(C2CC(c3ccccc3)=NN2C(=S)Nc2ccccc2)c1` (centres undefined), for which the IC50 in the experiment on TAG (mean of runs) is > 25 µM (inactive); with TAG (run 1), more than 25 µM; in the experiment on TAG (run 2), more than 25 µM. The IC50 cytotoxicity (DAPI nuclear signal decrease) in the experiment on DAPI (mean of runs) is > 25 µM (inactive); with DAPI (run 1) it was more than 25 µM; with DAPI (run 2) it was more than 25 µM.

For `Cc1cccc(Nc2nc(NCc3ccco3)nc(N3CCOCC3)n2)c1`, the IC50 in the experiment on TAG (mean of runs) was > 25 µM (inactive); with TAG (run 1) it was more than 25 µM; with TAG (run 2) it was more than 25 µM. For the same compound, the IC50 cytotoxicity (DAPI nuclear signal decrease) with DAPI (mean of runs) is > 25 µM (inactive); in the experiment on DAPI (run 1), more than 25 µM; with DAPI (run 2) it was more than 25 µM.

As to `CCOc1ccc2nc(-c3ccccc3)nc(SCC(=O)Nc3ncc(C)s3)c2c1`, the IC50 in the experiment on TAG (mean of runs) is > 25 µM (inactive); in the experiment with TAG (run 1), more than 25 µM; with TAG (run 2) it was more than 25 µM. Also, the IC50 cytotoxicity (DAPI nuclear signal decrease) was > 25 µM (inactive) with DAPI (mean of runs), more than 25 µM in the experiment with DAPI (run 1) and more than 25 µM in the experiment on DAPI (run 2).

For the compound `COC(=O)c1c(NC(=S)NN2CCN(C)CC2)sc2c1CCC(C)C2` (centres undefined), the IC50 in the experiment with TAG (run 1) was more than 25 µM; with TAG (run 2), 15.1 µM. The IC50 cytotoxicity (DAPI nuclear signal decrease) was 17.8 µM (inactive) with DAPI (mean of runs), 18.5 µM with DAPI (run 1) and 17.1 µM in the experiment with DAPI (run 2).

`CCOCCOC(=O)c1[nH]c2c(c1C)C(=O)CC(c1cccs1)C2` (centres undefined): the IC50 in the experiment with TAG (mean of runs) was > 25 µM (inactive); with TAG (run 1), more than 25 µM; in the experiment on TAG (run 2), more than 25 µM. In addition, the IC50 cytotoxicity (DAPI nuclear signal decrease) in the experiment with DAPI (mean of runs) was > 25 µM (inactive); in the experiment with DAPI (run 1), more than 25 µM; in the experiment with DAPI (run 2), more than 25 µM.

For `CCCCCCSc1cc(-c2nc3ccc(Cl)cn3c2NC2CCCCC2)ccc1OC`, the IC50 in the experiment with TAG (mean of runs) was 22.6 µM (inactive); in the experiment on TAG (run 1) it was 20.4 µM; with TAG (run 2), 24.7 µM. The IC50 cytotoxicity (DAPI nuclear signal decrease) in the experiment on DAPI (mean of runs) was > 25 µM (inactive); in the experiment on DAPI (run 1), more than 25 µM; with DAPI (run 2), more than 25 µM.

Take `O=C(CCl)Nc1cc2[nH]c(=O)[nH]c2cc1Br`: the IC50 in the experiment with TAG (mean of runs) is 9.37 µM; in the experiment on TAG (run 1), 5.97 µM; with TAG (run 2), 12.8 µM. For the same compound, the IC50 cytotoxicity (DAPI nuclear signal decrease) was 15 µM (inactive) in the experiment on DAPI (mean of runs), 11.7 µM in the experiment with DAPI (run 1) and 18.3 µM in the experiment with DAPI (run 2).

As to `Cc1nn2c(NCc3ccccn3)c3c(nc2c1-c1ccccc1)CCC3`, the results for the IC50 in the experiment on TAG (mean of runs), in the experiment with TAG (run 1) and with TAG (run 2) were > 25 µM (inactive), more than 25 µM and more than 25 µM, respectively. Moreover, the figures for the IC50 cytotoxicity (DAPI nuclear signal decrease) in the experiment on DAPI (mean of runs), in the experiment on DAPI (run 1) and in the experiment with DAPI (run 2) were > 25 µM (inactive), more than 25 µM and more than 25 µM, respectively.

Take `Cn1c(N)c(C(=O)COC(=O)c2ccc([N+](=O)[O-])o2)c(=O)n(C)c1=O`: the values for the IC50 in the experiment with TAG (mean of runs), with TAG (run 1) and in the experiment on TAG (run 2) were 10.1 µM, 8.87 µM and 11.3 µM, respectively. For the same compound, the IC50 cytotoxicity (DAPI nuclear signal decrease) is 19.1 µM (inactive) in the experiment on DAPI (mean of runs), 18.4 µM in the experiment with DAPI (run 1) and 19.8 µM in the experiment with DAPI (run 2).

`c1ccc(-c2nc(N3CCOCC3)cc(N3CCOCC3)n2)cc1`: the IC50 in the experiment with TAG (mean of runs) is 9.99 µM; in the experiment with TAG (run 1), 5.81 µM; in the experiment with TAG (run 2) it was 14.2 µM. Besides, the IC50 cytotoxicity (DAPI nuclear signal decrease) with DAPI (mean of runs) was > 25 µM (inactive); with DAPI (run 1), more than 25 µM; in the experiment on DAPI (run 2), more than 25 µM.

For the compound `CCCCCOc1ccc(NC(=O)CSc2cccc3cccnc23)cc1`, the IC50 with TAG (mean of runs) was > 25 µM (inactive); in the experiment on TAG (run 1), more than 25 µM; in the experiment on TAG (run 2) it was more than 25 µM. The results for the IC50 cytotoxicity (DAPI nuclear signal decrease) in the experiment with DAPI (mean of runs), with DAPI (run 1) and in the experiment with DAPI (run 2) were > 25 µM (inactive), more than 25 µM and more than 25 µM, respectively.

On to `COc1ccc2[nH]c3c(c2c1)CCN1C(=O)C(CC(=O)NC/C=C(\C)CCC=C(C)C)C[C@H](C(=O)N(C(C)C)C(C)C)[C@@]31C` (some centres undefined), for which the IC50 in the experiment with TAG (mean of runs) is 19.3 µM (inactive); in the experiment on TAG (run 1) it was 19.5 µM; with TAG (run 2) it was 19.1 µM. The IC50 cytotoxicity (DAPI nuclear signal decrease) was 19.8 µM in the experiment on DAPI (run 1) and more than 25 µM in the experiment with DAPI (run 2).

With `COc1cc2c(c(OC)c1OC)-c1ccc(SC)c(=O)cc1C(NC=O)CC2` (centres undefined), the IC50 in the experiment on TAG (mean of runs) is > 25 µM (inactive); with TAG (run 1) it was more than 25 µM; in the experiment on TAG (run 2), more than 25 µM. In addition, the results for the IC50 cytotoxicity (DAPI nuclear signal decrease) in the experiment on DAPI (mean of runs), in the experiment with DAPI (run 1) and in the experiment with DAPI (run 2) were > 25 µM (inactive), more than 25 µM and more than 25 µM, respectively.

Turning to `Cc1nn(-c2ccccc2)c2c1CC(=O)Nc1ccccc1-2`, the IC50 with TAG (mean of runs) is 8.97 µM; in the experiment on TAG (run 1) it was 7.74 µM; in the experiment on TAG (run 2), 10.2 µM. Further, the IC50 cytotoxicity (DAPI nuclear signal decrease) was > 25 µM (inactive) in the experiment on DAPI (mean of runs), more than 25 µM in the experiment with DAPI (run 1) and more than 25 µM in the experiment with DAPI (run 2).

In the case of `COc1cccc(/C=N/NC(=O)CSc2cccc3cccnc23)c1`, the IC50 with TAG (mean of runs) is > 25 µM (inactive); with TAG (run 1) it was more than 25 µM; in the experiment on TAG (run 2) it was more than 25 µM. Besides, the IC50 cytotoxicity (DAPI nuclear signal decrease) with DAPI (mean of runs) was > 25 µM (inactive); in the experiment with DAPI (run 1) it was more than 25 µM; in the experiment with DAPI (run 2) it was more than 25 µM.
